In article PMC7730235, “Discovery of a Novel Class of Covalent Dual Inhibitors Targeting the Protein Kinases BMX and BTK” (International Journal of Molecular Sciences, 2020):

How the values were obtained:
kinase domain of BMX [1] = target: T1, kinase domain of BMX (Homo sapiens, UniProt P51813); assay: Mass spectrometric investigation of covalent binding to BMX (ESI-TOF); conditions: 4 °C; for BMX covalent adduct fraction, 30 min / BMX covalent adduct fraction, 60 min / BMX covalent adduct fraction, 120 min / BMX covalent adduct fraction, 240 min / native (unmodified) BMX fraction, 30 min / native (unmodified) BMX fraction, 60 min / native (unmodified) BMX fraction, 120 min / native (unmodified) BMX fraction, 240 min: 1.5-fold molar excess of inhibitor; for covalent labeling of BMX (in words): complete labeling refers to 30 min
T1 construct: The kinase domains of JAK3 and BMX at 2 μM
Experimental: The kinase domain of BMX was diluted to 0.05 mM with buffer containing 20 mM Tris pH 8.0, 200 mM NaCl, 0.5 mM TCEP (pH 7.0) and was subsequently mixed with 0.075 mM inhibitors (ratio of protein to inhibitor of 1:1.5). The mixture was incubated at 4°C. The samples were taken at different time points, the reaction stopped by diluting the sample with a 200-fold excess of 1% formic acid. The denatured protein and the adducts were assessed using electrospray time-of-flight (ESI-TOF) mass spectrometry.

JAK1 = target: T2, JAK1 (Homo sapiens, UniProt P23458); assay: Radiometric kinase assay (Reaction Biology HotSpot); format: biochemical; conditions: five-dose singlicate, [ATP] = 10 μM
T2 construct: purchased Reaction Biology Corporation
T2 sequence (P23458 whole entry): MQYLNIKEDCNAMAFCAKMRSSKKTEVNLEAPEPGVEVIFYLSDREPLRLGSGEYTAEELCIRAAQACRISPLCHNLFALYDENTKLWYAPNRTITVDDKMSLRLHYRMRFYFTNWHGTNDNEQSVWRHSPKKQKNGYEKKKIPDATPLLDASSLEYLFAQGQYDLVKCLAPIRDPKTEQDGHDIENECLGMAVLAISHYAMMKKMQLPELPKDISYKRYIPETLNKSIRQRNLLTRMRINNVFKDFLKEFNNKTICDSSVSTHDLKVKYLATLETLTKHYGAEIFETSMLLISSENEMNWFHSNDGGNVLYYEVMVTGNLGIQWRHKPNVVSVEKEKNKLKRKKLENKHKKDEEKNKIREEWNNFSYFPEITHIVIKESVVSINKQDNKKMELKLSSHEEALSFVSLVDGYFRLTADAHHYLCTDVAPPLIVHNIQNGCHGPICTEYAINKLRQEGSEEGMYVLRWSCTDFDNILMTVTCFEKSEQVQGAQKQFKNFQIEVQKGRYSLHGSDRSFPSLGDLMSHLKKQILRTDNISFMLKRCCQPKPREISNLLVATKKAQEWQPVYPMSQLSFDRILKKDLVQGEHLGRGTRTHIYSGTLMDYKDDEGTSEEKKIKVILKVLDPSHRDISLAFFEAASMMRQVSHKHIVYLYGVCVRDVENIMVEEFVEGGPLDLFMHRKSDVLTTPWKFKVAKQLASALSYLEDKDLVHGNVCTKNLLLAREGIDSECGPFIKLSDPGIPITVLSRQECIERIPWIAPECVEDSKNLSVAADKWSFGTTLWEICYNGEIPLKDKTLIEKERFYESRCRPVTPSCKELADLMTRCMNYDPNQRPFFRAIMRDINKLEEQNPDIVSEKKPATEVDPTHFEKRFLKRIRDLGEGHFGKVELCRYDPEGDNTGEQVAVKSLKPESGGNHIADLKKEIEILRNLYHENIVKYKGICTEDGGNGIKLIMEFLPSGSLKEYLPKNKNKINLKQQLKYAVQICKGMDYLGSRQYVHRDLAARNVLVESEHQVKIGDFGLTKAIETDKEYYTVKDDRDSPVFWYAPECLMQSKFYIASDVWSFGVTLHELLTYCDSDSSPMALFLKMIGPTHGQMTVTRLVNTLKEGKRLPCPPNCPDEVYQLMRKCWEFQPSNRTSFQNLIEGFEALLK
Experimental: (§1) If not mentioned differently, in vitro profiling of compounds was performed at Reaction Biology Corporation using the HotSpot™ assay platform.

JAK2 = target: T3, JAK2 (Homo sapiens, UniProt O60674); assay: as above; format: biochemical; conditions: five-dose singlicate, [ATP] = 10 μM
T3 construct: purchased Reaction Biology Corporation
T3 sequence (O60674 whole entry): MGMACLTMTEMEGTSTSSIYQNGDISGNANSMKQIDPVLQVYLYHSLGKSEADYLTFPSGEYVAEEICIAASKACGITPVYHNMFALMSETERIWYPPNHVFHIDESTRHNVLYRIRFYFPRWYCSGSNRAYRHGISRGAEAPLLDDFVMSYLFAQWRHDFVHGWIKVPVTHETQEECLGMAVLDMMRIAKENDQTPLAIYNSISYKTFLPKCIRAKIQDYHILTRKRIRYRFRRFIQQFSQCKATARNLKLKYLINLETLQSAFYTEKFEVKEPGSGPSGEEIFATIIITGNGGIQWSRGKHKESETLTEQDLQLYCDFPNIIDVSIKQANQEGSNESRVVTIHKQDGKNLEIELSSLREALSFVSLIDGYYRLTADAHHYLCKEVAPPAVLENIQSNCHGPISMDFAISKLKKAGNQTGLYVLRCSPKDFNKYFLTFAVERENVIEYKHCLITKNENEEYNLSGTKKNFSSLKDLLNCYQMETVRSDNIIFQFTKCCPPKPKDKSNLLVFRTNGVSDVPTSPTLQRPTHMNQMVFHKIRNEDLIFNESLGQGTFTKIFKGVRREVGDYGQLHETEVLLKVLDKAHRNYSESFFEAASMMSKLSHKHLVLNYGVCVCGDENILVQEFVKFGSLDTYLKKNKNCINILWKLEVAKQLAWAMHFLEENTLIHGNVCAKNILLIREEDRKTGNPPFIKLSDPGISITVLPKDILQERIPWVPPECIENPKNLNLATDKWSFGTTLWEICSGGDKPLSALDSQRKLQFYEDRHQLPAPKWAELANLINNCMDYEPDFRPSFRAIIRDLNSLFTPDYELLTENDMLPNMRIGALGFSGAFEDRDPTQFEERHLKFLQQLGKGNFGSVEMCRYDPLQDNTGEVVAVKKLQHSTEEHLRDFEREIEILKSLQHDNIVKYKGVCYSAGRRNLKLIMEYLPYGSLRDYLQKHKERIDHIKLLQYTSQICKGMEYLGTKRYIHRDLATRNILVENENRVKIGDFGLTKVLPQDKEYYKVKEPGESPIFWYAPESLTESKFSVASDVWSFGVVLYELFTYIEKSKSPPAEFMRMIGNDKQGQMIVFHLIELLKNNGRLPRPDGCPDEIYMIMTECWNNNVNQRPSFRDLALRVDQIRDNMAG
Experimental: as §1

TYK2 = target: T4, TYK2 (Homo sapiens, UniProt P29597); assay: as above; format: biochemical; conditions: five-dose singlicate, [ATP] = 10 μM
T4 construct: purchased Reaction Biology Corporation
T4 sequence (P29597 whole entry): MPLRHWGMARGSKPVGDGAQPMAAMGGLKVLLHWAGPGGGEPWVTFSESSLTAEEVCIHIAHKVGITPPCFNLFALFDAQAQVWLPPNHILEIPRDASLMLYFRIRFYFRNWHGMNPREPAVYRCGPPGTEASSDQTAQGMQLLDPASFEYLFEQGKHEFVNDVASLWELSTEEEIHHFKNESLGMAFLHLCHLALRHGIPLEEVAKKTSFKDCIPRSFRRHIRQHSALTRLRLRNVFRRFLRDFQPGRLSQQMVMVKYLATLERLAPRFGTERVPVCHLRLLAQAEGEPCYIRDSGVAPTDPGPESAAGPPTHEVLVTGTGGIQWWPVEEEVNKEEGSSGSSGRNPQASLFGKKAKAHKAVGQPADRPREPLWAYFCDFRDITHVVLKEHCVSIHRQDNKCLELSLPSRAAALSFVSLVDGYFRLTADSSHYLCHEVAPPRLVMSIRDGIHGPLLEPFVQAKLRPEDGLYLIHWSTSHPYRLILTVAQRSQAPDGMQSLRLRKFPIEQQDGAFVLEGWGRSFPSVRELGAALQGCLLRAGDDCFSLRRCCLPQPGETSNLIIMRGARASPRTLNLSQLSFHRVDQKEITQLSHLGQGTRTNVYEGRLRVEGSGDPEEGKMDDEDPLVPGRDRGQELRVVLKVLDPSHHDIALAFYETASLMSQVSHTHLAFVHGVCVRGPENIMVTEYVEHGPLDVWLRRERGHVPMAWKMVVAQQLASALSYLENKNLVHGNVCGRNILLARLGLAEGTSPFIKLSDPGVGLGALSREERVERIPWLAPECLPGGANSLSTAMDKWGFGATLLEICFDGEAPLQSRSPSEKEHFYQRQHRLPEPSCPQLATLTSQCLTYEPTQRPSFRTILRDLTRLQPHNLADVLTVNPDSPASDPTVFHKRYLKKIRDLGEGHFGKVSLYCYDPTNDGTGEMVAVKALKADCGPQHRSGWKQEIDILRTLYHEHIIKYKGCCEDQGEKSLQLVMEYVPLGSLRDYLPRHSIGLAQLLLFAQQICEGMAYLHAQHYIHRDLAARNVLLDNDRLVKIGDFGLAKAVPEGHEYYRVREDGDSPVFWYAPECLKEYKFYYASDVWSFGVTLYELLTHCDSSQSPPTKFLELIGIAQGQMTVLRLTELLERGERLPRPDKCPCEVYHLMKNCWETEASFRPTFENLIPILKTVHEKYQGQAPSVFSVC
Experimental: as §1

[2] = target: T5, Full length BMX (C-terminal NanoLuc fusion) (Homo sapiens, UniProt P51813); assay: Cellular NanoBRET target engagement assay in HEK293T cells; format: cell-based; conditions: 0.5 µM Tracer K4, 2 h incubation
T5 construct: Full length BMX and BTK was cloned into pFC32K; expressed in transfected cells; host or cells: HEK293T
T5 sequence (P51813 1-675): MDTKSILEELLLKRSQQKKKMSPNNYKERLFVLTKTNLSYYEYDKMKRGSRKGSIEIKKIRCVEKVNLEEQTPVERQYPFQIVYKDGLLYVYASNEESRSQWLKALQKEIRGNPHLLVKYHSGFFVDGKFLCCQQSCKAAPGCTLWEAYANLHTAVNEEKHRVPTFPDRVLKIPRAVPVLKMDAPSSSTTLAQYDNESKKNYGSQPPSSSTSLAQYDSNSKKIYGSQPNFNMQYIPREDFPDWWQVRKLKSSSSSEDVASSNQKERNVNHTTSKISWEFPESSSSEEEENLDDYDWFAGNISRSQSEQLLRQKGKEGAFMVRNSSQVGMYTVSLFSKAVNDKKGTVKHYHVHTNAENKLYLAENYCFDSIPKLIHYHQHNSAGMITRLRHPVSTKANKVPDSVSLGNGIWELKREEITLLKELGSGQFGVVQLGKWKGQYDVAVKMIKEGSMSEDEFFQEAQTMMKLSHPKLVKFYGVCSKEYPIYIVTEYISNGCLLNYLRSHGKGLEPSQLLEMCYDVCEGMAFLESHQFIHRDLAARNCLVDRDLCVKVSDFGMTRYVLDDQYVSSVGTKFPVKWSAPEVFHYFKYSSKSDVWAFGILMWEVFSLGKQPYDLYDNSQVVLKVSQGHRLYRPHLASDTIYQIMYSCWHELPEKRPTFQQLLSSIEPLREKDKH
How it was run: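 HEK293T cells transiently expressing C-terminal NanoLuc fusions, harvested 20 h post-transfection, incubated 2 h at 37 °C with inhibitor and 0.5 µM Tracer K4 (BMX) or 0.5 µM Tracer K5 (BTK).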

kinase domain of JAK3 = target: T6, kinase domain of JAK3 (Homo sapiens, UniProt P52333); assay: Thermal shift (ΔTm) assay; format: binding; conditions: 2 μM kinase domain, 10 μM inhibitor; mean ± SD of at least three measurements
T6 construct: The kinase domains of JAK3 and BMX at 2 μM; made in house
T6 sequence (P52333 822-1111 limits assumed): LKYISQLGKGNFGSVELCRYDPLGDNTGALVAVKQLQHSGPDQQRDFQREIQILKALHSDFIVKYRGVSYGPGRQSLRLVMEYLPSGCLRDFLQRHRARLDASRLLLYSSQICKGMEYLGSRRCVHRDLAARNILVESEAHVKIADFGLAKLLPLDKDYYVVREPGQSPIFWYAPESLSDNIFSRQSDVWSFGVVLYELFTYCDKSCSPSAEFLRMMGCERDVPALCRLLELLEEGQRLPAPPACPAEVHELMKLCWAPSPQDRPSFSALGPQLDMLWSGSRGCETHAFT
Experimental: (§2) The kinase domains of JAK3 and BMX at 2 μM were mixed with the inhibitors at 10 μM, and subsequently SyPRO orange dye (Invitrogen Carlsbad, CA, USA) was added. The thermal shift assay and data evaluation were performed as described previously using a Real-Time PCR Mx3005p machine (Stratagene, La Jolla, CA, USA).

kinase domain of BMX [3] = target: T1, kinase domain of BMX; assay: Thermal shift (ΔTm) assay; format: binding; conditions: 2 μM kinase domain, 10 μM inhibitor; mean ± SD of at least three measurements
Experimental: as §2

## C=CC(=O)Nc1cccc(-c2c[nH]c3ncccc23)c1 [Compound 9a, N-(3-(1H-pyrrolo[2,3-b]pyridin-3-yl)phenyl)acrylamide]
Kinase domain of BMX [1]
  BMX covalent adduct fraction, 30 min: 100%
  BMX covalent adduct fraction, 60 min: 100%
  BMX covalent adduct fraction, 120 min: 100%
  BMX covalent adduct fraction, 240 min: 100%
Kinase domain of BMX [1]; 1.5-fold molar excess
  covalent labeling of BMX (in words): complete labeling
JAK1
  IC50: 2.97 µM
JAK2
  IC50: 3.58 µM
TYK2
  IC50: 5.54 µM
[2]
  IC50: 0.026 ± 0.011 µM

## C=CC(=O)Nc1cccc(-c2c[nH]c3ncc(C(N)=O)cc23)c1 [Compound 10a, 3-(3-acrylamidophenyl)-1H-pyrrolo[2,3-b]pyridine-5-carboxamide]
Kinase domain of BMX [1]
  BMX covalent adduct fraction, 30 min: 99%
  BMX covalent adduct fraction, 60 min: 100%
  BMX covalent adduct fraction, 120 min: 100%
  BMX covalent adduct fraction, 240 min: 100%
Kinase domain of BMX [1]; 1.5-fold molar excess
  covalent labeling of BMX (in words): complete labeling
JAK1
  IC50: 0.46 µM
JAK2
  IC50: 1.12 µM
TYK2
  IC50: 1.9 µM
[2]
  IC50: 0.765 ± 0.283 µM
Kinase domain of JAK3
  ΔTm at 10 µM: 21.07 ± 0.03 °C
Kinase domain of BMX [3]
  ΔTm at 10 µM: 10.49 ± 0.09 °C

## C=CC(=O)Nc1cccc(-c2c[nH]c3ncc(C(=O)NC4CCCC4)cc23)c1 [Compound 11a, 3-(3-acrylamidophenyl)-N-cyclopentyl-1H-pyrrolo[2,3-b]pyridine-5-carboxamide]
Kinase domain of BMX [1]
  BMX covalent adduct fraction, 30 min: 60%
  native (unmodified) BMX fraction, 30 min: 40%
  BMX covalent adduct fraction, 60 min: 67%
  native (unmodified) BMX fraction, 60 min: 33%
  BMX covalent adduct fraction, 120 min: 89%
  native (unmodified) BMX fraction, 120 min: 11%
  BMX covalent adduct fraction, 240 min: 97%
  native (unmodified) BMX fraction, 240 min: 3%
Kinase domain of BMX [1]; 1.5-fold molar excess
  exposure required to approach full target modification: 240 min
[2]
  IC50: 6.07 ± 1.83 µM
Kinase domain of JAK3
  ΔTm at 10 µM: 9.12 ± 0.02 °C
Kinase domain of BMX [3]
  ΔTm at 10 µM: 5.31 ± 0.18 °C

## CCC(=O)Nc1cccc(-c2c[nH]c3ncc(NC(=O)C4CCCC4)cc23)c1 [Compound 12b, N-(3-(3-propionamidophenyl)-1H-pyrrolo[2,3-b]pyridin-5-yl)cyclopentanecarboxamide]
Kinase domain of BMX [1]
  native (unmodified) BMX fraction, 30 min: 100%
  native (unmodified) BMX fraction, 60 min: 100%
  native (unmodified) BMX fraction, 120 min: 100%
  native (unmodified) BMX fraction, 240 min: 100%
Kinase domain of BMX [1]; 1.5-fold molar excess
  covalent labeling of BMX (in words): no modification was detectable
[2]
  IC50: > 10 µM

## C=CC(=O)Nc1cccc(-c2c[nH]c3ncc(NC(=O)c4cccs4)cc23)c1 [Compound 12c, N-(3-(3-acrylamidophenyl)-1H-pyrrolo[2,3-b]pyridin-5-yl)thiophene-2-carboxamide]
Kinase domain of BMX [1]
  BMX covalent adduct fraction, 30 min: 100%
  BMX covalent adduct fraction, 60 min: 100%
  BMX covalent adduct fraction, 120 min: 100%
  BMX covalent adduct fraction, 240 min: 100%
Kinase domain of BMX [1]; 1.5-fold molar excess
  covalent labeling of BMX (in words): complete labeling
[2]
  IC50: 0.003 ± 0.001 µM
Kinase domain of JAK3
  ΔTm at 10 µM: 7.36 ± 0.44 °C
Kinase domain of BMX [3]
  ΔTm at 10 µM: 11.52 ± 0.08 °C
